pIC50: −log10 of the molar value.
tested on: rats; assay: not given; details: sub-chronic treatment with PCP, Rodefer et al. 2005; cited from earlier work

Compound | effect on deficits in extra-dimensional shift learning
COc1ccc(Cc2nccc3cc(OC)c(OC)cc23)cc1OC [papaverine, Papaverine] | attenuate the deficits in the extra-dimensional shift learning

target: T1, PDE10A2 (Homo sapiens, UniProt Q9Y233); assay: PDE10A2 Scintillation Proximity Assay (SPA), [3H]-cGMP hydrolysis; type: biochemical; details: catalytic domain of human PDE10A2 (S449-D789), 0.25 nM enzyme, 50 nM cGMP + 50 nM [3H]-cGMP, 30 minutes at room temperature; read-out: PDE10A2 inhibition IC50
T1 construct: residues serine 449 to aspartate 789; His6 (H6) with Gateway linker and thrombin cleavage site (N, cleaved yes); made in house; host or cells: E. coli BL21(DE3) pLysS
Outline: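 Recombinant human PDE10A2 catalytic domain (S449–D789, E. coli-expressed), 0.25 nM, with 50 nM cGMP plus 50 nM [3H]-cGMP in 20 mM HEPES/10 mM MgCl2, pH 7.5, 30 min at room temperature. Stopped with YSi-SPA beads in zinc sulphate; counts over a compound concentration range gave IC50.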

T1 sequence (Q9Y233 715-1055): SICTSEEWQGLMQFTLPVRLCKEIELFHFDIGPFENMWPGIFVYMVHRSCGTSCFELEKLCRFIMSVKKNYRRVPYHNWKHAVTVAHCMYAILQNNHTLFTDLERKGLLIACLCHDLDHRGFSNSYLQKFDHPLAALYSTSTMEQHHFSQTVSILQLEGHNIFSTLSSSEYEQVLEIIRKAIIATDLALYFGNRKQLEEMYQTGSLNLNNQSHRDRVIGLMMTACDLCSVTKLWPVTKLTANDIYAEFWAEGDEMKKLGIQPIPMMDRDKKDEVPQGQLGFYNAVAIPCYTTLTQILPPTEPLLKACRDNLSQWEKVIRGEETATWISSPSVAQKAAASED

Compound | pIC50
O=c1ccn(-c2ccncc2)nc1-c1ccnn1-c1ccc(F)cc1 [Example 7, 3-[2-(4-Fluoro-phenyl)-2H-pyrazol-3-yl]-1-pyridin-4-yl-1H-pyridazin-4-one] | 6.74
O=c1ccn(-c2ccncc2)nc1-c1ccnn1-c1cccc(F)c1F [Example 29, 3-[2-(2,3-Difluoro-phenyl)-2H-pyrazol-3-yl]-1-pyridin-4-yl-1H-pyridazin-4-one] | 6.66
O=c1ccn(-c2cccnc2)nc1-c1ccnn1-c1cccc(F)c1 [Example 35, 3-[2-(3-Fluoro-phenyl)-2H-pyrazol-3-yl]-1-pyridin-3-yl-1H-pyridazin-4-one] | 6.55
O=c1ccn(-c2ccncc2)nc1-c1ccnn1-c1ccccc1Cl [Example 12, 3-[2-(2-Chloro-phenyl)-2H-pyrazol-3-yl]-1-pyridin-4-yl-1H-pyridazin-4-one] | 6.64
Cc1cc(-n2nccc2-c2nn(-c3ccncc3)ccc2=O)ccn1 [Example 19, 3-[2-(2-Methyl-pyridin-4-yl)-2H-pyrazol-3-yl]-1-pyridin-4-yl-1H-pyridazin-4-one] | 6.38
O=c1ccn(-c2ccncc2)nc1-c1ccnn1-c1cccc2cccnc12 [Example 26, 1-Pyridin-4-yl-3-(2-quinolin-8-yl-2H-pyrazol-3-yl)-1H-pyridazin-4-one] | 6.09
CS(=O)(=O)c1cc(-n2ccc(=O)c(-c3ccnn3-c3ccc4c(c3)OCCO4)n2)ccn1 [Example 17, 3-[2-(2,3-Dihydro-benzo[1,4]dioxin-6-yl)-2H-pyrazol-3-yl]-1-(2-methanesulfonyl-pyridin-4-yl)-1H-pyridazin-4-one] | 7.02
O=c1ccn(-c2ccnc(N3CCOCC3)c2)nc1-c1ccnn1-c1ccc2c(c1)OCCO2 [Example 41, 3-[2-(2,3-Dihydro-benzo[1,4]dioxin-6-yl)-2H-pyrazol-3-yl]-1-(2-morpholin-4-yl-pyridin-4-yl)-1H-pyridazin-4-one] | 7.09
O=c1ccn(-c2ccnc(Cl)c2)nc1-c1ccnn1-c1cccc2ccccc12 [Example 13, 1-(2-Chloro-pyridin-4-yl)-3-(2-naphthalen-1-yl-2H-pyrazol-3-yl)-1H-pyridazin-4-one] | 7.96
O=c1ccn(-c2ccncc2)nc1-c1ccnn1-c1cccc2ncccc12 [Example 22, 1-Pyridin-4-yl-3-(2-quinolin-5-yl-2H-pyrazol-3-yl)-1H-pyridazin-4-one] | 7.46
O=c1ccn(-c2cccnc2)nc1-c1ccnn1-c1ccc2c(c1)OCO2 [Example 32, 3-(2-Benzo[1,3]dioxol-5-yl-2H-pyrazol-3-yl)-1-pyridin-3-yl-1H-pyridazin-4-one] | 6.82
NS(=O)(=O)c1ccc(-n2nccc2-c2nn(-c3ccncc3)ccc2=O)cc1 [Example 8, 4-[5-(4-Oxo-1-pyridin-4-yl-1,4-dihydro-pyridazin-3-yl)-pyrazol-1-yl]-benzenesulfonamide] | 5.20
O=c1ccn(-c2cccnc2)nc1-c1ccnn1-c1ccccn1 [Example 33, 1-Pyridin-3-yl-3-(2-pyridin-2-yl-2H-pyrazol-3-yl)-1H-pyridazin-4-one] | 5.53
O=c1ccn(-c2ccncc2)nc1-c1ccnn1-c1ccc(Cl)cc1 [Example 6, 3-[2-(4-Chloro-phenyl)-2H-pyrazol-3-yl]-1-pyridin-4-yl-1H-pyridazin-4-one] | 6.73
N#Cc1cc(-n2ccc(=O)c(-c3ccnn3-c3ccc4c(c3)OCCO4)n2)ccn1 [Example 43, 4-{3-[2-(2,3-Dihydro-benzo[1,4]dioxin-6-yl)-2H-pyrazol-3-yl]-4-oxo-4H-pyridazin-1-yl}-pyridine-2-carbonitrile] | 6.18

Results, then the compound that gave them:

pIC50 | Compound
7.57 | O=c1ccn(-c2cncc(OC(F)F)c2)nc1-c1ccnn1-c1ccccc1F [Example 74, 1-(5-Difluoromethoxy-pyridin-3-yl)-3-[2-(2-fluoro-phenyl)-2H-pyrazol-3-yl]-1H-pyridazin-4-one]
6.77 | O=c1ccn(-c2cccnc2)nc1-c1ccnn1-c1cccc2ncccc12 [Example 84, 1-Pyridin-3-yl-3-(2-quinolin-5-yl-2H-pyrazol-3-yl)-1H-pyridazin-4-one]
6.45 | O=c1ccn(-c2cccnc2)nc1-c1ccnn1-c1cc(F)ccc1F [Example 47, 3-[2-(2,5-Difluoro-phenyl)-2H-pyrazol-3-yl]-1-pyridin-3-yl-1H-pyridazin-4-one]
7.19 | O=c1ccn(-c2cncc(Cl)c2)nc1-c1ccnn1-c1cccc(Cl)c1 [Example 53, 3-[2-(3-Chloro-phenyl)-2H-pyrazol-3-yl]-1-(5-chloro-pyridin-3-yl)-1H-pyridazin-4-one]
7.49 | O=c1ccn(-c2ccncc2)nc1-c1ccnn1-c1ccnc2cc(Cl)ccc12 [Example 91, 3-[2-(7-Chloro-quinolin-4-yl)-2H-pyrazol-3-yl]-1-pyridin-4-yl-1H-pyridazin-4-one]
7.05 | O=c1ccn(-c2ccnc(Cl)c2)nc1-c1ccnn1-c1cccc2ncccc12 [Example 58, 1-(2-Chloro-pyridin-4-yl)-3-(2-quinolin-5-yl-2H-pyrazol-3-yl)-1H-pyridazin-4-one]
6.69 | Cc1cc(-n2ccc(=O)c(-c3ccnn3-c3ccccc3F)n2)ccn1 [Example 93, 3-[2-(2-Fluoro-phenyl)-2H-pyrazol-3-yl]-1-(2-methyl-pyridin-4-yl)-1H-pyridazin-4-one]
8.15 | O=c1ccn(-c2ccc3ncccc3c2)nc1-c1ccnn1-c1cccc(Cl)c1 [Example 103, 3-[2-(3-Chloro-phenyl)-2H-pyrazol-3-yl]-1-quinolin-6-yl-1H-pyridazin-4-one]
5.81 | O=c1ccn(-c2ccnc(Cl)c2)nc1-c1ccnn1-c1ccnc(Cl)c1 [Example 57, 1-(2-Chloro-pyridin-4-yl)-3-[2-(2-chloro-pyridin-4-yl)-2H-pyrazol-3-yl]-1H-pyridazin-4-one]
7.51 | O=c1ccn(-c2ccc3cnccc3c2)nc1-c1ccnn1-c1ccccc1F [Example 100, 3-[2-(2-Fluoro-phenyl)-2H-pyrazol-3-yl]-1-isoquinolin-6-yl-1H-pyridazin-4-one]
7.24 | O=c1ccn(-c2ccnc(O)c2)nc1-c1ccnn1-c1ccc2c(c1)OCCO2 [Example 46, 3-[2-(2,3-Dihydro-benzo[1,4]dioxin-6-yl)-2H-pyrazol-3-yl]-1-(2-hydroxy-pyridin-4-yl)-1H-pyridazin-4-one]
6.59 | CS(=O)(=O)c1cncc(-n2ccc(=O)c(-c3ccnn3-c3cccc(F)c3)n2)c1 [Example 45, 3-[2-(3-Fluoro-phenyl)-2H-pyrazol-3-yl]-1-(5-methanesulfonyl-pyridin-3-yl)-1H-pyridazin-4-one]
6.55 | O=c1ccn(-c2ccnc(C(F)(F)F)c2)nc1-c1ccnn1-c1ccccc1F [Example 94, 3-[2-(2-Fluoro-phenyl)-2H-pyrazol-3-yl]-1-(2-trifluoromethyl-pyridin-4-yl)-1H-pyridazin-4-one]
6.91 | O=c1ccn(-c2ccnc(Cl)c2)nc1-c1ccnn1-c1ccnc2ccc(F)cc12 [Example 55, 1-(2-Chloro-pyridin-4-yl)-3-[2-(6-fluoro-quinolin-4-yl)-2H-pyrazol-3-yl]-1H-pyridazin-4-one]
7.42 | O=c1ccn(-c2cnc3ccccc3c2)nc1-c1ccnn1-c1ccccc1F [Example 78, 3-[2-(2-Fluoro-phenyl)-2H-pyrazol-3-yl]-1-quinolin-3-yl-1H-pyridazin-4-one]
7.11 | O=c1ccn(-c2ccncc2)nc1-c1ccnn1-c1ccnc2ccc(Cl)cc12 [Example 72, 3-[2-(6-Chloro-quinolin-4-yl)-2H-pyrazol-3-yl]-1-pyridin-4-yl-1H-pyridazin-4-one]
7.30 | O=c1ccn(-c2cccnc2)nc1-c1ccnn1-c1cccc2cnccc12 [Example 86, 3-(2-Isoquinolin-5-yl-2H-pyrazol-3-yl)-1-pyridin-3-yl-1H-pyridazin-4-one]
7.11 | O=c1ccn(-c2cncc(Cl)c2)nc1-c1ccnn1-c1cccc2ncccc12 [Example 60, 1-(5-Chloro-pyridin-3-yl)-3-(2-quinolin-5-yl-2H-pyrazol-3-yl)-1H-pyridazin-4-one]

Source: patent publication US9187455B2, “Substituted pyridazines as PDE10A inhibitors” (Hoffmann-La Roche Inc., priority 2009, dated 2015)
